ChEMBL document CHEMBL1149411, “Application of fragment screening and fragment linking to the discovery of novel thrombin inhibitors” (J Med Chem, 2006)
Values belong to the compound of their own block, whether it stands above or below them. The source made the active and inactive calls. The rule behind the calls is not given here.

Assays:
Prothrombin [1] = molecular target: T1, Prothrombin (Homo sapiens, UniProt P00734); experiment: Inhibitory activity against Thrombin
Trypsin = Trypsin (Homo sapiens, UniProt P07477+P07478+P35030); experiment: Inhibitory activity against trypsin; assay type: protein assay
Prothrombin [2] = molecular target: T1, Prothrombin; experiment: Inhibition of Thrombin at 300 uM

IC50 (Prothrombin [1]): 1.4 nM
Structure (SMILES): COc1cc(C)c(S(=O)(=O)NC[C@@H](O)[C@H](Cc2ccccc2)NCc2cc(Cl)ccc2-n2cnnn2)c(C)c1C

IC50 (Trypsin): > 100000 nM
Structure (SMILES): COc1cc(C)c(S(=O)(=O)NC[C@@H](O)[C@H](Cc2ccccc2)NCc2cccc(Cl)c2)c(C)c1C

Structure (SMILES): NCc1cccc(Cl)c1
inhibition (Prothrombin [2]): inactive
